Assay results reported in patent US9062088B2, “CDK-inhibiting pyrrolopyrimidine carboxamide derivative or pharmaceutically acceptable salt thereof, and pharmaceutical composition containing the same as active ingredient for preventing or treating hepatocellular carcinoma” (SNU R&DB Foundation, priority 2010, dated 2015).
Where “and” joins values, the source holds several entries; their conditions need not be identical. Equal entries are not always repeated. Blank lines part the entries; values can stand above or below the compound they belong to.

Assays:
Cdk2/cyclin A = molecular target: T1, Cdk2/cyclin A (Homo sapiens, UniProt P24941); assay: In vitro kinase activity assay, histone H1 phosphorylation by Cdk2/cyclin A; assay type: biochemical; conditions: for Phosphorylation (%) Cdk2: 0 nM = 100%
T1 construct: purchased Upstate
Protocol: (§1) To kinase assay buffer (50 mM Tris (pH 7.4), 10 mM magnesium chloride, 1 mM EGTA, 40 mM β-glycerophosphate, 0.1 mM Na3VO4, 1 mM DTT, 0.1 μg/mL leupeptin, 0.1 μg/mL pepstatin A, 0.1 μg/mL antipain and 1 mM phenylmethylsulfonyl fluoride) were added 5 μg histone H1 as a substrate, 20 ng Cdk1/cyclin B or 40 ng Cdk2/cyclin A recombinant protein (Upstate, NY, USA) as an enzyme, 2.5 μCi [γ-32P]ATP, and 100 μM MgAc/ATP. The total reaction volume was adjusted to 50 μl. The compound of Example 2 was added to the reaction mixture, followed by inducing kinase reaction at 30° C. for 20 minutes. Upon completion of the reaction, the reaction mixture proceeded to electrophoresis on 12% SDS-polyacrylamide gel. Phosphorylation levels of Cdk1 and Cdk2 over the concentrations of the compound of Example 2 were confirmed by autoradiography, and the results are shown in FIG. 1, FIG. 2, and Table 1.
(§2) The intensity of bands was analyzed by densitometry (GS-800, Bio-Rad).

SNU-354 cells = assay: Flow cytometry, sub G1 ratio change (Experimental Example 3); assay type: cell-based, human; conditions: 10 μM, 24 hours, vehicle = 1.0
Protocol: SNU-354 cells were seeded in a 90 mm dish, to which vehicle and the compounds of Examples 2˜6 were treated at the concentration of 10 μM each for 24 hours. The cells were collected and washed with cold PBS, followed by reaction in 500 μl of cold 70% ethanol at 4° C. for overnight to fix the cells. The cells were washed with 500 μl of PBS three times, followed by reaction with 500 μl of PBS containing 50 μg/mL propidium iodide (P1) and 50 μl of 1 mg/mL RNAse A at room temperature for 30 minutes in the darkness. Fluorescence of the P1 stained cell was measured by using FACS caliber flow cytometer and cell quest program (Becton Dickinson Immunocytometry Systems, CA, USA). Sub G1 ratio changes of SNU-354 cells induced by the compounds were measured by FACS analysis.

Cdk9/cyclin T1 = molecular target: T2, Cdk9/cyclin T1 (Homo sapiens, UniProt P50750); assay: In vitro kinase assay of Cdk9, RNA Pol II-CTD-GST substrate; assay type: biochemical; conditions: 0 nM = 100
T2 construct: purchased Upstate
T2 sequence (P50750 whole entry): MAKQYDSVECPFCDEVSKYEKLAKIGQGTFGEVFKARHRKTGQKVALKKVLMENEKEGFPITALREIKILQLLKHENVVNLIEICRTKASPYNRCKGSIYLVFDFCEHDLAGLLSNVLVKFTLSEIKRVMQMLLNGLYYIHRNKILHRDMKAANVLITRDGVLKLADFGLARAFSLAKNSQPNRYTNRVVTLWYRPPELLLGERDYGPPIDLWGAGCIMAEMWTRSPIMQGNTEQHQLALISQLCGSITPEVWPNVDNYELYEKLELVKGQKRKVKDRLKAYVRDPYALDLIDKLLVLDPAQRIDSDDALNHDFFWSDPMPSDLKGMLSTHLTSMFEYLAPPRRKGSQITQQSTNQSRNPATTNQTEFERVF
T2 sequence (O60563 whole entry partner): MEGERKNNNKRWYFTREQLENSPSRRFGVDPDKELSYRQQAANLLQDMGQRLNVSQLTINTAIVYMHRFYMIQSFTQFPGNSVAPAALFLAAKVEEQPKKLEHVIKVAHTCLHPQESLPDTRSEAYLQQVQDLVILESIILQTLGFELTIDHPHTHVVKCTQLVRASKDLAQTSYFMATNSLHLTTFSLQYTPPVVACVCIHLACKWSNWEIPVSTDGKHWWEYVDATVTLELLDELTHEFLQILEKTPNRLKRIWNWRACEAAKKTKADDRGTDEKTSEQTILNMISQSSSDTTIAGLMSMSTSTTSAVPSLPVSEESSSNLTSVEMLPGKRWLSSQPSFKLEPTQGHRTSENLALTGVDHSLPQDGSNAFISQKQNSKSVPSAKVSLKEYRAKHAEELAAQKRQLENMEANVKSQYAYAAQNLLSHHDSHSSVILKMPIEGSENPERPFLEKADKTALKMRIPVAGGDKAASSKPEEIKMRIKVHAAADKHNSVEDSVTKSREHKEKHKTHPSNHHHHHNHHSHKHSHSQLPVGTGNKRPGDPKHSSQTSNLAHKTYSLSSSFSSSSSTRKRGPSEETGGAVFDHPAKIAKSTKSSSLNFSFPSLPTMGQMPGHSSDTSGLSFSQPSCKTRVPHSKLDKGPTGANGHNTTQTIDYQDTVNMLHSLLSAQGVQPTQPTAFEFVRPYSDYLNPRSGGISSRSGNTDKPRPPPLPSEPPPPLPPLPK
Protocol: To kinase assay buffer were added RNA Pol II-CTD-GST protein (Jena Bioscience, Germany) as a substrate, Cdk9/cyclin T1 or Cdk7/cyclin H/MAT1 recombinant protein (Upstate) as an enzyme, 2.5 μCi [γ-32P]ATP, and 100 μM MgAc/ATP. The total reaction volume was adjusted to 50 μl. Kinase assay reaction was induced at 30° C. for 20 minutes. Upon completion of the reaction, electrophoresis was performed on 8% SDS-polyacrylamide gel. The activities of Cdk7 and Cdk9 over the concentrations of the compounds of Example 1 and Example 2 were confirmed by autoradiography and the results are shown in FIG. 5˜FIG. 8 and Table 3.
as §2

Mcl-1, survivin, XIAP = assay: Western blotting of Mcl-1, survivin, XIAP proteins in SNU-354 cells; assay type: cell-based, human; conditions: FIG. 13
Protocol: (§3) After treating the compound of Example 2 to SNU-354 cells, cell pellet was lysed with lysis buffer (0.5% triton X-100, 20 mM Tris-HCl (pH 7.5), 2 mM magnesium chloride, 1 mM DTT, 1 mM EGTA, 50 mM β-glycerophosphate, 25 mM sodium fluoride, 1 mM Na3VO4, 2 μg/mL leupeptin, 2 μg/mL pepstatin A, 100 μg/mL phenylmethylsulfonyl fluoride, and 1 μg/mL antipain) at 4° C. for 1 hour, followed by quantification of protein. A proper amount of protein was electrophoresed on SDS-PAGE gel and then transferred onto polyvinylidene difluoride membrane (Millipore Co., Bedford, Mass.). The membrane was reacted in inhibiting solution (PBS, 5% skim milk, 0.1% tween-20) at room temperature for 1˜2 hours. The membrane was reacted with the primary antibody (goat anti-phospho-Rb, rabbit anti-nucleolin) diluted in the inhibiting solution (1:1000). Then, the membrane was washed with PBST, followed by reaction with the proper secondary antibody (horseradish peroxidase (HRP) conjugated) at room temperature for 1 hour.
Experiment was performed by the same manner as described in step 2 of Experimental Example 1 except that rabbit anti-Mcl-1 (from Santa Cruz Biochemicals, CA, USA), rabbit anti-survivin, rabbit anti-XIAP (from Cell Signaling, MA, USA), and rabbit anti-Actin (from Sigma, USA) were used as primary antibodies.

Cdk1/cyclin B = molecular target: T3, Cdk1/cyclin B (Homo sapiens, UniProt P06493); assay: In vitro kinase activity assay, histone H1 phosphorylation by Cdk1/cyclin B; assay type: biochemical; conditions: for Phosphorylation (%) Cdk1: 0 nM = 100%
T3 construct: purchased Upstate
T3 sequence (P06493 whole entry): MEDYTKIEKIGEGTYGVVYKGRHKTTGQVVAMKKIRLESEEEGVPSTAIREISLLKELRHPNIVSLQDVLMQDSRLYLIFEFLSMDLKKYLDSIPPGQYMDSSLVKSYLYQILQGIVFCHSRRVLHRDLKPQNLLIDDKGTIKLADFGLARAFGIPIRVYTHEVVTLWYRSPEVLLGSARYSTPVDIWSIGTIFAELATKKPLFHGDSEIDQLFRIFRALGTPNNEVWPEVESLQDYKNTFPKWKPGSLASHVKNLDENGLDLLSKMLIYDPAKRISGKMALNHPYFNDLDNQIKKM
T3 sequence (P14635 whole entry partner): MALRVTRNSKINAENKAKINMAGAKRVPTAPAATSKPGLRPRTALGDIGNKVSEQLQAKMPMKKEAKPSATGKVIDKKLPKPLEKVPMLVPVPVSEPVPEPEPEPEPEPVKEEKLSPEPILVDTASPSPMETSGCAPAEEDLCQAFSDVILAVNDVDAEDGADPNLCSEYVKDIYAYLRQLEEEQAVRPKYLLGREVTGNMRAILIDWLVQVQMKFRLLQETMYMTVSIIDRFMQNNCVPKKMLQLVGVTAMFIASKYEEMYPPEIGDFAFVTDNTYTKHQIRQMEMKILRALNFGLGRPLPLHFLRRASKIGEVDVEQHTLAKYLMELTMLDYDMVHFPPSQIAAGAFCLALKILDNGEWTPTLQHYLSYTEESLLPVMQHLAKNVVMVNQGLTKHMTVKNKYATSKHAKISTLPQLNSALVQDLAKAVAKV
Protocol: as §1, §2

[1] = system: caspase-3 activity in SNU-354 cells; assay: Measurement of caspase-3 activity (Experimental Example 1-6-2); assay type: cell-based, human
Protocol: SNU-354 cells treated with the compounds of Examples 1 and 2 were lysed with lysis buffer (0.5% triton X-100, 20 mM Tris-HCl (pH 7.5), 2 mM magnesium chloride, 1 mM DTT, 1 mM EGTA, 50 mM β-glycerophosphate, 25 mM sodium fluoride, 1 mM Na3VO4, 2 μg/mL leupeptin, 2 μg/mL pepstatin A, 100 μg/mL phenylmethylsulfonyl fluoride, 1 μg/mL antipain). The protease analysis buffer necessary for the reaction (20 mM HEPES (pH 7.5), 10% glycerol, 2 mM DTT) was mixed with 20 μM Ac-DEVD-AMC (BD Biosciences, CA, USA) and cell lysates, followed by reaction at 37° C. for 1 hour. Upon completion of the reaction, caspase-3 activity was measured at 380 nm of excitation and 460 nm of emission with spectrofluorometer (TECAN, Switzerland) and the results are shown in FIG. 18 and Table 8.

Cdk9 = assay: Western blotting of Cdk9 activity (phospho RNA Pol II Ser 2); assay type: cell-based, human; conditions: 0 nM = 100
Protocol: as §3
Experiment was performed by the same manner as described in step 2 of Experimental Example 1 except that rabbit anti-phospho RNA Pol II (Ser 5) and rabbit anti-phospho RNA Pol II (Ser 2) (from Bethyl, TX, USA) were used as primary antibodies. The results are shown FIG. 9˜FIG. 12, and Table 4 and Table 5.

Phosphorylation (%) Cdk2 (Cdk2/cyclin A; 10 nM): 86.5%
Phosphorylation (%) Cdk2 (Cdk2/cyclin A; 20 nM): 75.0%
Phosphorylation (%) Cdk2 (Cdk2/cyclin A; 40 nM): 59.0%
Phosphorylation (%) Cdk2 (Cdk2/cyclin A; 50 nM): 50%
Phosphorylation (%) Cdk2 (Cdk2/cyclin A; 60 nM): 43.0%
Phosphorylation (%) Cdk2 (Cdk2/cyclin A; 80 nM): 39.2%
Phosphorylation (%) Cdk2 (Cdk2/cyclin A; 100 nM): 4.5%
IC50 (Cdk2/cyclin A; histone H1 phosphorylation): 50 nM
Cdk9 activity (Cdk9/cyclin T1; 10 nM): 95.4%
Cdk9 activity (Cdk9/cyclin T1; 100 nM): 40.5%
Cdk9 activity (Cdk9/cyclin T1; 1000 nM): 3.3%
Phosphorylation (%) Cdk1 (Cdk1/cyclin B; 10 nM): 100% and 99.4%
Phosphorylation (%) Cdk1 (Cdk1/cyclin B; 20 nM): 92.2%
Phosphorylation (%) Cdk1 (Cdk1/cyclin B; 40 nM): 74.1%
Phosphorylation (%) Cdk1 (Cdk1/cyclin B; 50 nM): 50%
Phosphorylation (%) Cdk1 (Cdk1/cyclin B; 60 nM): 41.6%
Phosphorylation (%) Cdk1 (Cdk1/cyclin B; 80 nM): 15.3%
Phosphorylation (%) Cdk1 (Cdk1/cyclin B; 100 nM): 4.3%
IC50 (Cdk1/cyclin B; histone H1 phosphorylation): 50 nM
Structure (SMILES): CC(C)C(=O)OC[C@@H]1O[C@H](n2cnc(N)c3c(C(N)=O)c(Br)nc2-3)[C@H](O)[C@H]1O [Example 2, ((2S,3R,4R,5S)-5-(4-amino-6-bromo-5-carbamoyl-1H-pyrrolo[2,3-d]pyrimidin-1-yl)-3,4-dihydroxy-tetrahydrofuran-2-yl)methyl isobutyrate]
sub G1 ratio change (SNU-354 cells): 5.9
Mcl-1, Survivin and XIAP protein level (Mcl-1, survivin, XIAP): down-regulated
caspase-3 activity relative to the control ([1]; 0.5 uM and up): 7 times
Cdk9 activity (Cdk9; 0.1 nM): 81.5%
Cdk9 activity (Cdk9; 0.5 nM): 27.3%
Cdk9 activity (Cdk9; 1 nM): 11%
Cdk9 activity (Cdk9; 5 nM): 2.2%
Cdk9 activity (Cdk9; 10 nM): 1.1%
Cdk9 activity (Cdk9; 50 nM): 0.7%

Cdk9 activity (Cdk9/cyclin T1; 10 nM): 15.8%
Cdk9 activity (Cdk9/cyclin T1; 100 nM): 1.0%
Cdk9 activity (Cdk9/cyclin T1; 1000 nM): 0.1%
Structure (SMILES): NC(=O)c1c(Br)nc2n([C@H]3O[C@@H](CO)[C@H](O)[C@H]3O)cnc(N)c1-2 [Example 1, 4-amino-6-bromo-1-((2S,3R,4R,5S)-3,4-dihydroxy-5-(hydroxymethyl)-tetrahydrofuran-2-yl)-1H-pyrrolo[2,3-d]pyrimidine-5-carboxamide]
caspase-3 activity relative to the control ([1]; 1.0 uM and up): three times as high as that of the control
Cdk9 activity (Cdk9; 0.1 nM): 90.4%
Cdk9 activity (Cdk9; 0.5 nM): 87.0%
Cdk9 activity (Cdk9; 1 nM): 46.1%
Cdk9 activity (Cdk9; 5 nM): 1.9%
Cdk9 activity (Cdk9; 10 nM): 1.3%
Cdk9 activity (Cdk9; 50 nM): 0.2%
